Source: US20260258473A1, “FLUORESCENT PROBE FOR DETECTION OF ENPP ACTIVITY” (THE UNIVERSITY OF TOKYO, priority 2019, published 2026)

Target: ENPP2 (Homo sapiens, UniProt Q13822)
Assay: Measurement of plasma sample using a plate reader (ENPP probe fluorescence with and without serum)
Format: biochemical
Settings: compound at 10 μmol/L, ENPP2 at 25 μg/mL, human serum diluted by 10 times vs no serum, multi-well plate, Tris-HCl pH 8.3
Description: First, compounds (4) was diluted to 10 μmol/L with an assay buffer. The assay buffer has the composition of Tris-HCl buffer solution (pH 8.3), magnesium chloride at 1.0 mmol/L and 0.5% CHAPS. Subsequently, ENPP2 at 25 μg/mL and human serum diluted by 10 times were added, and the mixture was dispensed into a multi-well plate. Subsequently, the fluorescence intensity was measured with a plate reader. […] On the other hand, as described above, the measurement method using a microdevice enabled the activity of ENPP to be adequately measured even in the presence of serum.

SMILES: COc1cc(OC)c(S(=O)(=O)O)cc1-c1c2ccc(=O)cc-2oc2cc(OCOP(=O)(O)OCC3OC(n4cc(C)c(=O)[nH]c4=O)CC3O)ccc12 (stereo not shown) [Compound (4)]
- measured intensity of the activity of ENPP (fluorescence intensity): lower when serum was present than when serum was not present
